Paper doi:10.1101/2020.10.25.354381v1, “Multi-dimensional digital bioassay platform based on an air-sealed femtoliter reactor array device” (biorxiv, 2020)
pIC50: −log10 of the molar value.

How the values were obtained:
[1] = test system: T1, CiALP (calf intestinal ALP); assay: fluorogenic ALP assay, bulk microtiter plate, Hill fit; format: biochemical, Bos taurus; conditions: […] 4-MUP, […] DEA-HCl, […] MgCl2, […] ZnSO4, pH […] TWEEN20, […] °C; […] min preincubation
T1 construct: gene ALPI; homodimeric metalloenzyme

[2] = biological target: T2, EcALP (D101S, an active mutant of Escherichia coli ALP) (Escherichia coli, UniProt P00634, D123S); assay: as above; format: biochemical; conditions: […] 4-MUP, […] DEA-HCl, […] MgCl2, […] ZnSO4, pH […] TWEEN20, […] °C; […] min preincubation; diluted cell-free synthesis mixture
T2 construct: gene phoA; D101S mutant, cell-free synthesis (PURExpress with disulfide bond enhancer), not purified; homodimeric metalloenzyme
T2 sequence (P00634 22-471 D123S): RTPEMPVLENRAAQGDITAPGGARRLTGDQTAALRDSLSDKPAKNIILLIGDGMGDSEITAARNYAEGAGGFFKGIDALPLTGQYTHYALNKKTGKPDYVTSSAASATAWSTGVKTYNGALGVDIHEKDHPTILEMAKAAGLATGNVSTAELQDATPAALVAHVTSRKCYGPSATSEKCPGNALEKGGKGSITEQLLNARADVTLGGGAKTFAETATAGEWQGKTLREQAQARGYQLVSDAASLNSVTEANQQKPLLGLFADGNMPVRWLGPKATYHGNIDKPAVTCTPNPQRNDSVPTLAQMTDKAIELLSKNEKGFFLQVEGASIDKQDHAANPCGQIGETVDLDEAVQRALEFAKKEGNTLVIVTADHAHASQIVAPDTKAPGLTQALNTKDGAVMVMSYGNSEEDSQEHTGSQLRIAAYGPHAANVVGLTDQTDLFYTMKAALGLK

SMILES	pIC50 [1]	pIC50 [2]
O=P(O)(O)O [Pi, phosphate]	2.80	–
[O]=[V]([OH])([OH])[OH] [V, vanadate]	3.70	2.11
